pEC50, pIC50: −log10 of the molar value. Values joined by “and” are separate entries in the source; they are usually repeats but may differ in a detail not shown here. Equal values may be shown once. Active and inactive are the calls of the source.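 How the source made its calls: active means compounds giving half or more protection of infected cells from virus-caused growth loss, again on retest; inactive means the rest.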
System: CEM cells HIV-1 protection, formazan growth assay
Assay: NCI AIDS Antiviral Assay
Settings: for pIC50: measured here: growth of uninfected CEM cells
Method in brief: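 Category rules: moderately active means at least 50% protection on retest, and confirmed active means 100% protection reproducibly. The underlying data came from a formazan growth assay in HIV-1-infected CEM cells.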

`CCn1c(=O)c2c3ccc(O)cc3oc2c2ccc(O)cc21` gave a pEC50 of less than 3.70 and a pIC50 of 4.05.
For `O=C1C2CCCCC2C(=O)N1n1c(-c2ccccc2)n[nH]c1=O` (configuration not stated), the pEC50 was less than 3.70 and the pIC50 was less than 3.70.
Work on `CC(=O)NS(=O)(=O)c1ccc(NC(=O)c2ccccc2SSc2ccccc2[N+](=O)[O-])cc1` yielded a pEC50 of 5.05 and a pIC50 of 4.51.
`O=c1cc(-c2ccc(O)c(O)c2)oc2cc(OC3OC(CO)C(O)C(O)C3O)cc(O)c12` (configuration not stated) showed a pEC50 of less than 3.70 and a pIC50 of 4.81.
Compound `CCn1c2ccccc2c2nnc(NCCCO)nc21` has a pEC50 of less than 3.70 and a pIC50 of 3.85.
`O=C1Cc2ccccc2CCc2ccsc21` was tested, and the pEC50 was 4.19 and the pIC50 was 4.08.
`O=[N+]([O-])c1ccc(NSc2ccccc2)cc1` was tested, and the pEC50 was less than 3.70 and the pIC50 was 5.03.
`COc1ccc2c(C)cc(=O)oc2c1OC` gave a pEC50 of less than 3.70 and a pIC50 of less than 3.70.
Work on `Cc1ccccc1Nc1nc(NNC(=O)Cc2ccccc2)nc(NNC(=O)c2ccncc2)n1` yielded a pEC50 of 3.81 and a pIC50 of 3.39.
In the case of `CNc1ccc(C)cc1S(=O)(=O)c1ccccc1[N+](=O)[O-]`, the pEC50 was 6.08 and the pIC50 was 4.78.
Work on `COC1CC(CC2CCC(C)C(C(C)C(=O)O)O2)OC2(OC(C)(C3CCC(C)(C4OC(C5OC(O)(CO)C(C)CC5C)CC4C)O3)CC2C)C1C` (configuration not stated) yielded a pEC50 of 7.24 and a pIC50 of 6.27.
`COc1cc(/C=C2\CCC(C)c3c2nc(N)c(C#N)c3-c2cc(OC)c(OC)c(OC)c2)cc(OC)c1OC` (configuration not stated) was tested, and the outcome was “inactive”.
With `CC(=O)SCC1OC(n2cc(C)c(=O)[nH]c2=O)CC1O` (configuration not stated) the pEC50 was less than 3.70 and the pIC50 was less than 3.70.
In the case of `COc1ccc(-c2c(C)oc3cc(OC(C)=O)ccc3c2=O)cc1`, the pEC50 was less than 3.70 and the pIC50 was 4.51.
With `COc1ccc(/C(=N\NC(=O)C(N)=O)C(c2ccc(OC)cc2)C2(O)C(=O)Nc3c(Cl)cccc32)cc1` (configuration not stated) the pEC50 was less than 4.74 and the pIC50 was less than 4.74.
For `CC1OC(OC2C(Oc3c(-c4ccc(O)c(O)c4O)oc4cc(O)ccc4c3=O)OC(CO)C(O)C2O)C(O)C(O)C1O` (configuration not stated), the pEC50 was less than 3.70 and the pIC50 was 4.66.
Compound `COc1ccc(/C=C2\CN(C)CC3=C2OC(N)=C(C#N)C3c2ccc(OC)cc2)cc1` (configuration not stated) has a pEC50 of less than 3.70 and a pIC50 of 4.72.
For `CCCNC(=O)Sc1ccccc1C(=O)N[C@H](C)C(N)=O`, the pEC50 was less than 5.33.
Work on `COc1cccc2c1ccc1nonc12` yielded a pEC50 of less than 3.89 and a pIC50 of less than 3.89.
With `CCOC(=O)c1c(-c2ccc(O)c(OC)c2)c(C#N)c(=S)n(C2OC(CO)C(O)C(O)C2O)c1-c1ccccc1` (configuration not stated) the pEC50 was less than 3.70 and the pIC50 was < 3.70 and 3.93.
With `CCc1n[nH]c(=O)n1CCCCCCCCn1c(CC)n[nH]c1=O` the pEC50 was less than 3.70 and the pIC50 was less than 3.70.
`O=c1[nH]c(=O)c2ncn(-c3ccc([N+](=O)[O-])cn3)c2[nH]1` was tested, and the outcome was “inactive”.
`CC(=O)Nc1cnc2c(nc3cc(C)ccn32)c1C` showed a pEC50 of less than 4.13 and a pIC50 of less than 4.13.
With `COc1ccccc1OCC(O)CO` (configuration not stated) the outcome was “inactive”.
Work on `Cn1c(=O)[nH]n(-c2ccc3ccccc3c2)c1=O` yielded a pEC50 of less than 3.70 and a pIC50 of less than 3.70.
`CC1OC=CC(=O)C1O` (configuration not stated) was tested, and the outcome was “inactive”.
With `Nc1nc(Cl)nc2c1ncn2C1CCC(COP(=O)(O)OP(=O)(O)OP(=O)(O)O)O1` (configuration not stated) the outcome was “active”.
For `O=C1NC(O)c2c(F)cccc2O1` (configuration not stated), the pEC50 was less than 3.70 and the pIC50 was 3.88.
In the case of `COC(=O)CC(=O)OC1C[C@@H]2CCC3C(C)(C)CCC[C@]3(C)C23CC[C@@]1(C)C3` (some centres not stated), the pEC50 was less than 4.74 and the pIC50 was less than 4.74.
`COC(=O)C1=CC2OC1(C)C1(CC1)C2=O` (configuration not stated) was tested, and the outcome was “inactive”.
Compound `COc1ccc(-c2cn3ccsc3n2)cc1` has a pEC50 of less than 3.71 and a pIC50 of 3.79.
In the case of `NC(=O)C(=CN1CC(=O)NC1=S)C(N)=O`, the pEC50 was less than 3.70 and the pIC50 was less than 3.70.
With `CC(=O)NC(C)(C)C1CC=C(C)CC1` (configuration not stated) the pEC50 was less than 3.70 and the pIC50 was less than 3.70.
Work on `COC(=O)/C(=N\O)C(C(=O)C=C(C)C)C(=O)C(=O)Nc1ccccc1C` (configuration not stated) yielded a pEC50 of less than 3.16 and a pIC50 of less than 3.16.
Work on `O=C1Sc2ccc(Br)cc2C(=O)N2CSCC12` (configuration not stated) yielded a pEC50 of less than 3.70 and a pIC50 of less than 3.70.
With `O=C(OCc1ccccc1)N1c2cc([N+](=O)[O-])ccc2C(=O)N2CCC[C@H]2C1O` (some centres not stated) the pEC50 was less than 3.70 and the pIC50 was 3.86.
For `COC(=O)[C@H](C)NC(=O)[C@H](NS(=O)(=O)c1nc2ccccc2s1)c1ccccc1`, the pEC50 was less than 3.70 and the pIC50 was 4.43.
